Results: ChEMBL document CHEMBL1201862, “PubChem BioAssay data set” (2004)
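Cells were grown in 96-well plates and exposed to each compound for 48 hours at five concentrations; endpoints were interpolated linearly between bracketing concentrations, or set to the highest concentration if not reached. GI50: concentration for 50% inhibition of growth.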 The source made the active and inactive calls. Cut-off read from the data, not from the text of the source: active = GI50 up to about 1.1 µM and inactive = higher.

Legend:
Test in all cases: inhibition of tumour cell growth, NCI panel, 48 h
A498 = system: A498
A549 = system: A549
HOP-92 = system: HOP-92
K562 = system: K562
MDA-MB-231 = system: MDA-MB-231
MOLT-4 = system: MOLT-4
NCI-H226 = system: NCI-H226
PC-3 = system: PC-3
SK-OV-3 = system: SK-OV-3
SN12C = system: SN12C
U-251 = system: U-251
Malme-3M = system: Malme-3M
NCI-H522 = system: NCI-H522
BT-549 = system: BT-549

## O=C1CCC[C@H]2O[C@@H](COC(=O)c3ccccc3)C[C@H]2O1
A498
  GI50: > 100 µM (inactive)
A549
  GI50: > 100 µM (inactive)
HOP-92
  GI50: > 100 µM (inactive)
K562
  GI50: > 100 µM (inactive)
MDA-MB-231
  GI50: > 100 µM (inactive)
MOLT-4
  GI50: > 100 µM (inactive)
NCI-H226
  GI50: > 100 µM (inactive)
PC-3
  GI50: > 100 µM (inactive)
SK-OV-3
  GI50: > 100 µM (inactive)
SN12C
  GI50: > 100 µM (inactive)
U-251
  GI50: > 100 µM (inactive)

## CC(=O)OC1CC[C@@]2(C)C(=CC[C@@H]3[C@@H]2CC[C@]2(C)C(OC(C)=O)[C@H](n4ccnc4)C[C@@H]32)C1 (some centres not stated)
A498
  GI50: 90.4 µM (inactive)
A549
  GI50: 35.3 µM (inactive)
HOP-92
  GI50: 97.5 µM (inactive)
K562
  GI50: 24.6 µM (inactive)
MDA-MB-231
  GI50: 37.2 µM (inactive)
MOLT-4
  GI50: 12.9 µM (inactive)
Malme-3M
  GI50: 14.6 µM (inactive)
NCI-H226
  GI50: 36.6 µM (inactive)
NCI-H522
  GI50: 14.4 µM (inactive)
PC-3
  GI50: 16.2 µM (inactive)
SN12C
  GI50: 56 µM (inactive)
U-251
  GI50: 37.8 µM (inactive)

## N#C/C(=C/C=C/c1ccco1)C(N)=O
MDA-MB-231
  GI50: > 10 µM (inactive)
Malme-3M
  GI50: > 10 µM (inactive)
NCI-H226
  GI50: > 10 µM (inactive)
NCI-H522
  GI50: > 10 µM (inactive)
PC-3
  GI50: > 10 µM (inactive)
SK-OV-3
  GI50: > 10 µM (inactive)
SN12C
  GI50: > 10 µM (inactive)
U-251
  GI50: > 10 µM (inactive)

## CCN(CC)CCOC(NC(C)=O)(c1ccccc1)c1ccccc1
A498
  GI50: > 100 µM (inactive)
A549
  GI50: > 100 µM (inactive)
HOP-92
  GI50: > 100 µM (inactive)
MDA-MB-231
  GI50: > 100 µM (inactive)
MOLT-4
  GI50: > 100 µM (inactive)
Malme-3M
  GI50: > 100 µM (inactive)
NCI-H226
  GI50: > 100 µM (inactive)
SK-OV-3
  GI50: > 100 µM (inactive)
SN12C
  GI50: > 100 µM (inactive)
U-251
  GI50: > 100 µM (inactive)

## COC(=O)c1c2c(cc3c1CC1(C3)Cc3cc4c(c(C(=O)OC)c3C1)CCC4)CCC2
A498
  GI50: > 100 µM (inactive)
A549
  GI50: > 100 µM (inactive)
HOP-92
  GI50: > 100 µM (inactive)
K562
  GI50: > 100 µM (inactive)
MDA-MB-231
  GI50: > 100 µM (inactive)
MOLT-4
  GI50: > 100 µM (inactive)
Malme-3M
  GI50: > 100 µM (inactive)
NCI-H226
  GI50: > 100 µM (inactive)
NCI-H522
  GI50: > 100 µM (inactive)
PC-3
  GI50: > 100 µM (inactive)
SK-OV-3
  GI50: > 100 µM (inactive)
SN12C
  GI50: > 100 µM (inactive)
U-251
  GI50: > 100 µM (inactive)

## COC(=O)c1cc(/C=C/C(=O)Cc2ccccc2)cn1S(=O)(=O)c1ccccc1
A549
  GI50: > 100 µM (inactive)
BT-549
  GI50: > 100 µM (inactive)
K562
  GI50: > 100 µM (inactive)
MDA-MB-231
  GI50: > 100 µM (inactive)
MOLT-4
  GI50: > 100 µM (inactive)
Malme-3M
  GI50: > 100 µM (inactive)
NCI-H522
  GI50: > 100 µM (inactive)
PC-3
  GI50: > 100 µM (inactive)
SK-OV-3
  GI50: > 100 µM (inactive)
SN12C
  GI50: > 100 µM (inactive)

## C/C(=N\Nc1nc2ccccc2[nH]1)c1ccc2ccccc2n1
A549
  GI50: 2.52 µM (inactive)
BT-549
  GI50: > 100 µM (inactive)
K562
  GI50: 2.39 µM (inactive)
MDA-MB-231
  GI50: 1.87 µM (inactive)
MOLT-4
  GI50: 0.755 µM (active)
Malme-3M
  GI50: 2.4 µM (inactive)
NCI-H522
  GI50: 2.33 µM (inactive)
PC-3
  GI50: 1.44 µM (inactive)
SK-OV-3
  GI50: 8.87 µM (inactive)
SN12C
  GI50: 1.52 µM (inactive)
U-251
  GI50: 1.81 µM (inactive)

## COc1ccc(/C=C2\Sc3nnc(CNc4ccc(Cl)cc4)n3N=C2c2cc(F)c(Cl)cc2Cl)cc1OC
A498
  GI50: > 100 µM (inactive)
HOP-92
  GI50: 17 µM (inactive)
K562
  GI50: 19 µM (inactive)
MDA-MB-231
  GI50: > 100 µM (inactive)
MOLT-4
  GI50: 10.9 µM (inactive)
NCI-H226
  GI50: > 100 µM (inactive)
NCI-H522
  GI50: 27.7 µM (inactive)
PC-3
  GI50: 67.1 µM (inactive)
SK-OV-3
  GI50: > 100 µM (inactive)
U-251
  GI50: > 100 µM (inactive)

## Nc1cc(CO)cc(Nc2nc3ccc(Cl)cc3c3[nH]c4ccccc4c23)c1
A549
  GI50: 3.2 µM (inactive)
BT-549
  GI50: 10.9 µM (inactive)
HOP-92
  GI50: 2.43 µM (inactive)
K562
  GI50: 4.67 µM (inactive)
MDA-MB-231
  GI50: 2.55 µM (inactive)
MOLT-4
  GI50: 4.2 µM (inactive)
Malme-3M
  GI50: 5.27 µM (inactive)
NCI-H522
  GI50: 2.79 µM (inactive)
PC-3
  GI50: 4.92 µM (inactive)
SK-OV-3
  GI50: 3.24 µM (inactive)
SN12C
  GI50: 2.89 µM (inactive)
U-251
  GI50: 3.05 µM (inactive)
